Columns and labels:
Assay in all cases: relative viability (nuclei count vs DMSO), 5 days (fraction); higher = more cells survive
[1] = compound: CC1=CC(=NN1)NC2=CC(=NC(=N2)/C=C/C3=CC=CC=C3)N4CCN(CC4)C + CC(=O)Nc1cccc(-n2c(=O)n(C3CC3)c(=O)c3c(Nc4ccc(I)cc4F)n(C)c(=O)c(C)c32)c1 [Trametinib] (partner 0.02 µM)
Outline: (§1)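 Lung cancer cell lines in 1536-well plates got either a single drug or a fixed anchor-drug dose together with five library-drug doses (not always all listed) in √10 steps, by pin tool, on the day after seeding. Nuclei were counted after 5 days, and relative viability is the treated-to-vehicle ratio of nuclei counts. Values are medians of duplicate plates.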

[2] = compound: CC1=CC(=NN1)NC2=CC(=NC(=N2)/C=C/C3=CC=CC=C3)N4CCN(CC4)C + CCNC(=O)c1noc(-c2cc(C(C)C)c(O)cc2O)c1-c1ccc(CN2CCOCC2)cc1 [Luminespib] (partner 0.01 µM)
Outline: as §1

[3] = compound: CC(C)C[C@H](NC(=O)[C@H](Cc1ccccc1)NC(=O)c1cnccn1)B(O)O [Bortezomib] + Nc1ncn([C@H]2C[C@H](O)[C@@H](CO)O2)c(=O)n1 [Decitabine] (partner 2 µM)
Outline: as §1

[4] = compound: CC1=CC(=NN1)NC2=CC(=NC(=N2)/C=C/C3=CC=CC=C3)N4CCN(CC4)C + N=C(N)NC(=N)NCCc1ccccc1 [Phenformin] (partner 250 µM)
Outline: as §1

Row | Cell Line | relative viability ([1]; first compound 0.08 µM) | relative viability ([1]; first compound 0.253 µM) | relative viability ([1]; first compound 0.8 µM) | relative viability ([1]; first compound 2.53 µM) | relative viability ([1]; first compound 8 µM) | relative viability ([2]; first compound 0.08 µM) | relative viability ([2]; first compound 0.253 µM) | relative viability ([2]; first compound 0.8 µM) | relative viability ([2]; first compound 2.53 µM) | relative viability ([2]; first compound 8 µM) | relative viability ([3]; first compound 0.0002 µM) | relative viability ([3]; first compound 0.000632 µM) | relative viability ([3]; first compound 0.002 µM) | relative viability ([3]; first compound 0.006325 µM) | relative viability ([3]; first compound 0.02 µM) | relative viability ([4]; first compound 0.08 µM) | relative viability ([4]; first compound 0.253 µM) | relative viability ([4]; first compound 0.8 µM) | relative viability ([4]; first compound 2.53 µM) | relative viability ([4]; first compound 8 µM)
1 | A-427 | 0.632 | 0.6 | 0.76 | 0.451 | 0.215 | 0.775 | 0.984 | 0.873 | 0.361 | 0.105 | 0.531 | 0.536 | 0.579 | 0.247 | 0.18 | 0.347 | 0.21 | 0.282 | 0.121 | 0.0986
2 | NCI-H358 | 0.124 | 0.123 | 0.128 | 0.0733 | 0.0762 | 0.35 | 0.303 | 0.261 | 0.206 | 0.0878 | 0.204 | 0.207 | 0.191 | 0.0949 | 0.0871 | 0.272 | 0.377 | 0.229 | 0.0644 | 0.0549
3 | NCI-H1651 | 0.801 | 0.83 | 0.832 | 0.758 | 0.395 | 0.754 | 0.854 | 0.912 | 0.643 | 0.244 | 0.659 | 0.732 | 0.619 | 0.665 | 0.172 | 0.355 | 0.346 | 0.312 | 0.124 | 0.112
4 | NCI-H520 | 0.758 | 0.531 | 0.543 | 0.12 | 0.111 | 0.25 | 0.269 | 0.186 | 0.195 | 0.242 | 0.43 | 0.549 | 0.424 | 0.174 | 0.155 | 0.655 | 0.62 | 0.603 | 0.23 | 0.172
5 | NCI-H522 | 0.856 | 0.676 | 0.823 | 0.688 | 0.362 | 0.957 | 0.995 | 1.15 | 0.845 | 0.507 | 0.777 | 0.621 | 0.575 | 0.432 | 0.386 | 0.664 | 0.632 | 0.712 | 0.544 | 0.484
6 | 201T | 0.713 | 0.741 | 0.674 | 0.664 | 0.649 | 1.01 | 1.04 | 1.01 | 0.947 | 0.266 | 0.846 | 0.859 | 0.894 | 0.819 | 0.274 | 0.454 | 0.461 | 0.415 | 0.373 | 0.258
7 | NCI-H460 | 0.171 | 0.0318 | 0.129 | 0.0109 | 0.0042 | 0.0265 | 0.0399 | 0.0277 | 0.0233 | 0.0124 | 0.479 | 0.471 | 0.56 | 0.296 | 0.0215 | 0.552 | 0.597 | 0.514 | 0.0212 | 0.0183
8 | NCI-H2342 | 1 | 0.869 | 0.958 | 0.962 | 0.602 | 0.543 | 0.699 | 0.705 | 0.546 | 0.536 | 0.818 | 0.795 | 0.694 | 0.725 | 0.436 | 0.523 | 0.597 | 0.565 | 0.604 | 0.245
9 | NCI-H596 | 0.846 | 1.07 | 0.839 | 0.4 | 0.216 | 1.04 | 0.927 | 0.777 | 0.402 | 0.2 | 1.01 | 0.999 | 0.95 | 0.251 | 0.208 | 0.767 | 0.807 | 0.627 | 0.608 | 0.259
10 | HARA | 0.824 | 0.448 | 0.65 | 0.148 | 0.0692 | 0.699 | 0.791 | 0.348 | 0.139 | 0.043 | 0.459 | 0.569 | 0.415 | 0.125 | 0.124 | 0.47 | 0.513 | 0.343 | 0.211 | 0.138
11 | NCI-H1793 | 0.405 | 0.402 | 0.356 | 0.167 | 0.119 | 0.16 | 0.184 | 0.151 | 0.136 | 0.116 | 0.492 |  | 0.507 | 0.334 | 0.146 | 0.344 | 0.423 | 0.314 | 0.132 | 0.121
12 | SW 900 | 0.957 | 0.625 | 0.839 | 0.215 | 0.0981 | 0.164 | 0.136 | 0.159 | 0.168 | 0.11 | 0.347 | 0.423 | 0.227 | 0.206 | 0.284 | 0.467 | 0.529 | 0.6 | 0.172 | 0.0691
13 | NCI-H2126 | 0.57 | 0.534 | 0.555 | 0.516 | 0.346 | 0.934 | 1.01 | 0.882 | 0.812 | 0.224 | 0.603 | 0.597 | 0.535 | 0.552 | 0.197 | 0.518 | 0.557 | 0.525 | 0.365 | 0.227
14 | HCC-827 | 0.507 | 0.405 | 0.513 | 0.427 | 0.273 | 0.577 | 0.673 | 0.587 | 0.441 | 0.236 | 0.35 | 0.376 | 0.346 | 0.327 | 0.296 | 0.39 | 0.402 | 0.435 | 0.401 | 0.216
15 | BEN | 0.901 | 1.07 | 1.02 | 0.895 | 0.31 | 0.634 | 0.207 | 0.22 | 0.217 | 0.137 | 0.716 | 0.801 | 0.678 | 0.522 | 0.337 | 0.228 | 0.269 | 0.259 | 0.236 | 0.196
16 | ChaGo-K-1 | 0.937 | 0.887 | 0.807 | 0.753 | 0.19 | 0.644 | 0.613 | 0.629 | 0.384 | 0.159 | 0.49 | 0.444 | 0.561 | 0.444 | 0.161 | 0.482 | 0.442 | 0.434 | 0.151 | 0.121
17 | NCI-H23 | 0.302 | 0.317 | 0.257 | 0.142 | 0.118 | 0.183 | 0.206 | 0.197 | 0.212 | 0.205 | 0.288 |  | 0.312 | 0.162 | 0.163 | 0.793 | 0.887 | 0.711 | 0.247 | 0.204
18 | UMC-11 | 0.682 | 0.681 | 0.503 | 0.162 | 0.101 | 0.903 | 0.996 | 0.715 | 0.182 | 0.125 | 0.628 | 0.713 | 0.483 | 0.326 | 0.203 | 0.348 | 0.289 | 0.279 | 0.137 | 0.131
19 | NCI-H1975 | 0.343 | 0.333 | 0.4 | 0.254 | 0.105 | 0.178 | 0.28 | 0.199 | 0.151 | 0.118 | 0.411 | 0.371 | 0.176 | 0.126 | 0.115 | 0.409 | 0.397 | 0.388 | 0.138 | 0.118
20 | COR-L 105 | 0.427 | 0.453 | 0.416 | 0.276 | 0.27 | 0.553 | 0.784 | 0.736 | 0.654 | 0.197 | 0.695 | 0.614 | 0.526 | 0.33 | 0.278 | 0.453 | 0.495 | 0.469 | 0.213 | 0.17
21 | LK-2 | 0.836 | 0.48 | 0.697 | 0.417 | 0.129 | 0.174 | 0.175 | 0.226 | 0.16 | 0.151 | 0.274 | 0.384 | 0.281 | 0.227 | 0.15 | 0.313 | 0.327 | 0.309 | 0.111 | 0.117
22 | EKVX | 0.387 | 0.368 | 0.394 | 0.352 | 0.137 | 0.852 | 0.981 | 0.984 | 0.758 | 0.261 | 0.36 | 0.393 | 0.431 | 0.25 | 0.0809 | 0.236 | 0.21 | 0.236 | 0.189 | 0.109
23 | NCI-H2009 | 0.309 | 0.22 | 0.215 | 0.139 | 0.0702 | 0.989 | 1.04 | 0.987 | 1.05 | 0.2 | 0.392 | 0.431 | 0.388 | 0.101 | 0.0757 | 0.501 | 0.503 | 0.492 | 0.27 | 0.148
24 | NCI-H838 | 0.526 | 0.541 | 0.44 | 0.119 | 0.12 | 0.31 | 0.26 | 0.242 | 0.25 | 0.118 | 0.473 | 0.467 | 0.459 | 0.184 | 0.138 | 0.567 | 0.583 | 0.462 | 0.123 | 0.107
25 | NCI-H2085 | 0.594 | 0.48 | 0.535 | 0.261 | 0.214 | 0.358 | 0.417 | 0.438 | 0.318 | 0.184 | 0.588 | 0.544 | 0.593 | 0.298 | 0.246 | 0.653 | 0.769 | 0.679 | 0.279 | 0.236

Source: the supplement of paper PMC10307832
